The test system of assay [1] is permeabilized MCF-7 cells. Briefly: Citrate efflux from permeabilized MCF-7 cells (induction phase in Oroboros oxygraph, enzymatic citrate measurement). Particulars: 4.56 × 10^6 cells/ml. The format is cell-based, human. The protocol: Stock culture of MCF-7 cells was obtained from American Type Culture Collection (ATCC® Number: HTB-22™). The cells were grown as adherent monolayers in big T75 flasks (Greiner Bio-One GmbH, Germany) in low glucose (1.0 g/L) DMEM with stable L-glutamine (PAA Laboratories GmbH, Austria) that was supplemented with 1 mM Na-pyruvate (Gibco®, REF 11360-039), 10% heat-inactivated fetal bovine serum (FBS), […] human recombinant insulin (Gibco) and antibiotics: penicillin (100 U/ml), streptomycin (100 μg/ml) and gentamicin at a final concentration of 50 μg/ml. MCF-7 cells were grown and maintained at 37° C. in a humidified incubator containing 5% CO2 in air. The cells were sub-cultured at 2-3 day intervals.
MCF-7 cells were harvested from 5 T75 flasks (72 h after their seeding at a subculturing ratio of 1/5) by means of accutase (a cell detachment agent) treatment.
After detachment, the cell were washed twice with Mitomed-B solution (see Table 2), supplemented with lmg/ml bovine serum albumin (BSA) and 3-5 μM leupeptin (protease inhibitor) with centrifugation (on a Heraus “Biofuge primo R” refrigerated centrifuge equipped with a swing-out rotor, 150×g for 7 min at 4° C.). After washing, the pellet was resuspended in 2.5 ml of Mitomed-B (supplemented with lmg/ml BSA and 3-5 μM leupeptin) and the cells were stored on melting ice.
The experiments were carried out in an Oroboros oxygraph. Two parallel chambers on the same device were used. Reaction medium was Lahus-B as described below (Table 3).
Saponine concetration suitable for viability of MCF-7 cells was defined as 30 μg/ml. Malate, 2 mM, was present in all protocols in the reaction medium. BMS303141 was used to inhibit activity of ATP-citratelyase to stop it from metabolizing free citrate that accumulates to the reaction medium. 1,2,3-benzenetricarboxylic acid was used to stop citrate efflux from mitochondria. Saponine incubation time was 5 minutes. Cytochrome c and CAT were injected to the reaction medium right at the end of the experiment to assess the quality of mitochondrial inner and outer membranes. […]

In assay [2] the test system is permeabilized human breast cancer fibers. Nature of the assay: Citrate efflux from permeabilized fibers derived from human breast cancer clinical sample. It counts as cell-based. As to the method: In order to reach experiment targets, the sarcolemma and plasma membranes in skinned tumor fibers were completely permeabilized by saponin treatment keeping the mitochondrial membranes intact (both tumor and healthy tissue samples from the same patient were processed equally). Namely, skinned fibers were transferred into plastic vials with pre-cooled (on ice) Lahus-A (Table 8) containing 50 μg/ml saponin and incubated with mild stirring (at 40 rpm) for 30 min at 4° C. Permeabilized fibers were then washed in pre-cooled solution Lahus-B (Table 3) for 5 min under mild stirring; this washing procedure was performed three times to completely remove saponin and all soluble metabolites. The washed samples were placed into Lahus-B (Table 3) and kept in the same medium (at 4° C.) until use.
The experiments were carried out in an Oroboros oxygraph. Two parallel chambers on the same device were used. Reaction medium was Lahus-B (Table 3).
Saponine concetration suitable for viability of skinned breast cancer fibers was defined as 50 μg/ml. Malate, 2 mM, was present in all protocols in the reaction medium. BMS303141 was used to inhibit activity of ATP-citrate lyase to stop it from metabolizing free citrate that accumulates to the reaction medium. 1,2,3-benzenetricarboxylic acid was used to stop citrate efflux from mitochondria. Cytochorome c and CAT were injected to the reaction medium right at the end of the experiment to assess the quality of mitochondrial inner and outer membranes.
Duration of the induction phase: 1 hour.
Once the induction medium was ended, the reaction medium was transferred to 2.5 ml Eppendorf tube for centrifugation (14 000 rpm, 7 minutes). Fiber was removed from the reaction medium and weighted for calculations. The supernatant from the centrifugation was collected through syringe filter and stored on ice. Remaining debris was discarded as biological waste.
900 μl of each supernatant was used to enzymatically measure concentration of citrate as described before (Petrarulo et al, 1995).

Structures are written as SMILES. Marks after values point to notes of the source that are not given here.

Regarding `O=C(O)c1cccc(C(=O)O)c1C(=O)O` [1,2,3-BTC, 1,2,3-benzenetricarboxylic acid], the citrate efflux in assay [1] (protocol 2: glutamate 5 mM + malate 2 mM, 1,2,3-BTC 1 mM, 1 hour induction (without inhibitor: 1428)) is reported as 1098 ng citrate per 10^6 cells per; in assay [1] (protocol 4: pyruvate 0.05 mM + malate 2 mM, 1,2,3-BTC 1 mM, 1 hour induction (without inhibitor: 5564)) it was 1524 ng citrate per 10^6 cells per; in assay [1] (protocol 6: PalCar 40 μM + malate 2 mM, 1,2,3-BTC 1 mM, 1 hour induction (without inhibitor: 3059)) it was 1156 ng citrate per 10^6 cells per; in assay [2] (protocol 2: Glut/Mal, 1,2,3-BTC 1 mM, cancer fibers, footnote: result below detection limit (without inhibitor: 144.1, 172.1)) it was 41.7** ng citrate/mg × 60 min; in assay [2] (protocol 4: Pyr/Mal, 1,2,3-BTC 1 mM, cancer fibers, footnote: result below detection limit (without inhibitor: 194.6)), 17.6** ng citrate/mg × 60 min; in assay [2] (protocol 6: Palcar/Mal, 1,2,3-BTC 1 mM, cancer fibers (without inhibitor: 158.7)) it was 73.7 ng citrate/mg × 60 min. For the same molecule, the “effect on citrate accumulation in the reaction medium” value in assay [2] (permeabilized human breast cancer fibers, 1,2,3-BTC 1 mM) is given as “blocked the citrate accumulation in the reaction medium”.

Values taken from patent publication US10753924B2, “Method for selecting patients responsive for cancer treatments” (Mitogro OÜ, priority 2016, dated 2020).
